Assay results: publication PMC9821969, “Metabolomic Strategy to Characterize the Profile of Secondary Metabolites in Aspergillus aculeatus DL1011 Regulated by Chemical Epigenetic Agents” (Molecules, 2022)

Target: T1, SHP1 (Homo sapiens, UniProt P29350)
T1 construct: gene PTPN6; domain protein
T1 sequence (P29350 244-515 limits assumed): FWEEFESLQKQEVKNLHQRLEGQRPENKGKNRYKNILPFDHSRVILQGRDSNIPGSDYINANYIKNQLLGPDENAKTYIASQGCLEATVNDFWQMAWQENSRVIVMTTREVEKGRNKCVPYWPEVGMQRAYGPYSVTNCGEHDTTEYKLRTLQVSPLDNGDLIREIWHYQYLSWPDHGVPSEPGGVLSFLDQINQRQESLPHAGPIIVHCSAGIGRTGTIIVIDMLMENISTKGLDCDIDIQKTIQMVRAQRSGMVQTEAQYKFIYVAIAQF
Assay: pNPP phosphatase assay, absorbance at […] nm
Assay type: biochemical

`CO[C@@]1(C)[C@H](O)C(=O)C(C)=C(O)[C@@H]1Oc1c(C)c(O)cc(C)c1C(=O)O` [S10, Roseopurpurin A] was tested, and the IC50 was 16 µM.
